Assay results published in US20220339187A1, “ANTIMICROBIAL PEPTIDE-SELENIUM NANOPARTICLES” (The University of Melbourne, priority 2019, published 2022).

Columns and labels:
[1] = system: human dermal fibroblast cells (HDF); assay: Cell Counting Kit-8 (CCK-8) cytotoxicity assay; assay type: cell-based; conditions: all tested concentrations (1-50 μg/mL), 24 h
Experimental: Two methods were adopted to test the cytotoxicity of Se NP-ε-PL, namely the Cell Counting Kit-8 (CCK-8) assay and Lactate Dehydrogenase (LDH) assay.
Cytotoxicity of Se NPs, Se NP-ε-PL and pure ε-PL was tested using human dermal fibroblast cells (HDF). HDF were cultured in Dulbecco's modified Eagle's medium (DMEM) with 10% foetal bovine serum (FBS), 100 U·mL^−1 penicillin and 100 μg·mL^−1 streptomycin at 37° C. in a humidified atmosphere of 5% CO2. For the CCK-8 tests, filter sterilised Se NPs, Se NP-ε-PL and pure ε-PL in PBS suspensions were diluted in PBS to concentrations of 20, 50, 100, 200, 500 and 1000 μg/mL and 5% (v/v) of these diluted solutions were added to DMEM to give final concentrations of Se NPs of 1, 2.5, 5, 10, 25 and 50 μg/mL The control groups involved DMEM as the negative control and DMEM with 10% dimethyl sulfoxide (DMSO) as the positive control, according to ISO 10993-12 standard. […] 100 μL medium from each well was then transferred to new 96-well plates and the absorbance of each well was tested using a microplate reader (M200 PRO, Tecan) at a wavelength of 450 nm. The cell viability (X) of each experimental group was calculated based on 5 samples according the following formula: […]
where OD1 represents the mean absorbance of experimental groups and the positive control group and OD2 represents the mean absorbance of the negative control group.

K. pneumoniae ATCC 13883 = assay: Adenosine triphosphate (ATP) test (BacTiter-Glo); assay type: cell-based, Klebsiella pneumoniae; conditions: 1 h at 37° C.
Experimental: The bacterial strains methicillin-sensitive S. aureus ATCC 29213, E. faecalis ATCC 29212, E. coli ATCC 25922 and K. pneumoniae ATCC 13883 were cultured in MHB at 37° C. 50 μL of Se NPs, Se NP-ε-PL or pure ε-PL in PBS solution was added into each well of 96-well microplates. 50 μL MHB with 2.5×10^6 cells/mL bacteria was then added into each well. After 1h incubation at 37° C., the 96-well microplates were transferred to room temperature for a further 30 min incubation period. 100 μL of BacTiter-Glo™ reagent (Promega, Australia) was added into each well, then mixed on an orbital shaker and incubated for 5 min. The luminescence was recorded using a microplate reader (PerkinElmer 1420 Multilabel Counter VICTOR3).
A standard curve was generated by adopting the following steps. 10-fold serial dilutions of ATP from 1 μM to 10 pM in 100 μL MHB were prepared. 100 μL of BacTiter-Glo™ reagent was added into each well, then mixed on an orbital shaker and incubated for 1 min. The luminescence was recorded using a microplate reader (PerkinElmer 1420 Multilabel Counter VICTOR3).

E. faecalis ATCC 29212 = assay: ROS production test (CellROX Orange, flow cytometry); assay type: cell-based, Enterococcus faecalis; conditions: 6.25 or 12.5 μg/ml
Experimental: The bacterial strains methicillin-sensitive S. aureus (MSSA) ATCC 29213, E. faecalis ATCC 29212, E. coli ATCC 25922 were cultured in MHB at 37° C. 50 μL of different concentration of Se NPs, Se NP-ε-PL or pure ε-PL in PBS solution was added into each well of a 96-well microplate. 50 μL MHB with 2.5×10^6 cells/mL bacteria was then added into each well. After 90 min incubation at 37° C., CellROX® Orange Reagent was added into each well at a final concentration of 750 nM. The cells were incubated for a further 1 h. The fluorescence from the CellROX Orange Reagent was measured on FL-3 (red fluorescence channel) using the Cell Lab Quanta SC MPL flow cytometer (Beckman Coulter). Two independent experiments were done for this test, and two technical replicates were adopted for each independent experiment.

E. coli ATCC 25922 = assay: Membrane potential change test (BacLight, DiOC2(3)); assay type: cell-based, Escherichia coli; conditions: 6.25 or 12.5 μg/ml (CCCP 5 μM)
Experimental: Membrane potential change was measured using a BacLight Bacterial Membrane Potential Kit (Invitrogen). The bacterial strain methicillin-sensitive S. aureus (MSSA) ATCC 29213, E. faecalis ATCC 29212, E. coli ATCC 25922 were cultured in MHB at 37° C. 50 μL of different concentrations of Se NPs, Se NP-ε-PL or pure ε-PL in PBS solution was added into each well of 96-well microplates. 50 μL MHB with 2.5×10^6 cells/mL bacteria was then added into each well. 50 μL MHB with 2.5×10^6 cells/mL bacteria was added to 50 μL PBS to act as untreated control. Carbonyl cyanide 3-chlorophenylhydrazone (CCCP) was added to untreated control at a final concentration of 5 μM to act as fully depolarized control. 3,3′-Diethyloxacarbocyanine Iodide (DiOC2(3)) was added to all wells at a final concentration of […]. […] The untreated (polarized) and CCCP-treated (fully depolarized) controls were used to determine the percentage of depolarized cells. Two independent experiments were done for this test, and two technical replicates were adopted for each independent experiment.

With ε-poly-L-lysine [ε-PL] the “toxicity to HDF cells (cell viability, CCK-8)” value [1] was “no significant toxicity”, the ATP depletion (K. pneumoniae ATCC 13883) was “higher ATP depletion effect than Se NPs” and the “ROS production (high ROS production cells)” value (E. faecalis ATCC 29212) was “almost no promoting effects on ROS production”. The “depolarisation of cell membrane” value (E. coli ATCC 25922) was “depolarized cell membranes”.
